The source of these data is patent US20240245793A1, “PSD-95 INHIBITORS AND USES THEREOF” (priority 2021, published 2024).

In one series the target is T1, plasmin (Homo sapiens, UniProt P00747).
T1 construct: Tissue plasminogen factor (tPA), which generates plasmin from plasminogen
T1 sequence (P00747 581-810 limits assumed, species assumed): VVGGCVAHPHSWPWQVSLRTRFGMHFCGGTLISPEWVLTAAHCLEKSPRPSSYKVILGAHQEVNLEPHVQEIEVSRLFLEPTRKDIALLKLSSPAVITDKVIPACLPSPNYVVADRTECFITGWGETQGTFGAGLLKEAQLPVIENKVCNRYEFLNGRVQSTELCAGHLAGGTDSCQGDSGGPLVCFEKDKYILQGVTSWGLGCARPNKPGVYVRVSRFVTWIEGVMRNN
T1 sequence (P00747 97-580 partner limits assumed, species assumed): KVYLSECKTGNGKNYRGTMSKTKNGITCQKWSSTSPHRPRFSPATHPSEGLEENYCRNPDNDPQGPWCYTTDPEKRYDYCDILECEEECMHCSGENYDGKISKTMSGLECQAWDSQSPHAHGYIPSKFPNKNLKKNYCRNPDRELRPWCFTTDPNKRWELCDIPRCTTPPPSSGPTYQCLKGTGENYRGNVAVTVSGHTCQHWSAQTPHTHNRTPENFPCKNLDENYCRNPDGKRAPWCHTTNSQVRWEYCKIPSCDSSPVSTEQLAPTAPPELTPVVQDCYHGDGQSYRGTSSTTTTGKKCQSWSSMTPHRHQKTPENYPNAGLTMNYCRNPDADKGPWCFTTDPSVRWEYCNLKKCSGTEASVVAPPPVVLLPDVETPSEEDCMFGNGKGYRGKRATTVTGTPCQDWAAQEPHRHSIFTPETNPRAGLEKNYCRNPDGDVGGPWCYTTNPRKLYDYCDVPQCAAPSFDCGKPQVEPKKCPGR
Nature of the series: In vitro plasmin stability assay. It is filed as in vitro ADME. The conditions noted are these: isolated enzyme plasmin. How it is done: At selected time points during the incubation, the ligands were extracted from 80 μL of assay matrix by treatment with 80 μL of 50% acetonitrile (ACN). The samples were filtered and analysed by UPLC to determine the amount of ligand remaining. LC-MS analysis was performed to confirm ligand integrity and identify cleavage sites.
Compound `CC[C@H](C)[C@H](NC(=O)CCOCCOCCN(CCOCCOCCC(=O)N[C@H](C(=O)N[C@@H](CCC(=O)O)C(=O)N[C@H](C(=O)N[C@@H](CC(=O)O)C(=O)N[C@H](C(=O)O)C(C)C)[C@@H](C)O)[C@@H](C)CC)C(=O)[C@H](CCCCN)NC(=O)CCCNC(=O)CC[C@@H]1NC(=O)[C@@H](CCCNC(=N)N)NC(=O)[C@H](CCCNC(=N)N)NC(=O)[C@@H](CCCNC(=N)N)NC(=O)[C@H](CCCNC(=N)N)NC(=O)[C@H](Cc2ccc3ccccc3c2)NC(=O)[C@@H](Cc2ccccc2)NC(=O)[C@H](Cc2ccccc2)NC1=O)C(=O)N[C@@H](CCC(=O)O)C(=O)N[C@H](C(=O)N[C@@H](CC(=O)O)C(=O)N[C@H](C(=O)O)C(C)C)[C@@H](C)O` [Compound 62] showed a half-life at 100 μM of 24 h. The same measure, in the same setting: the result for `CC[C@H](C)[C@H](NC(=O)CCOCCOCCN(CCOCCOCCC(=O)N[C@H](C(=O)N[C@@H](CCC(=O)O)C(=O)N[C@H](C(=O)N[C@@H](CC(=O)O)C(=O)N[C@H](C(=O)O)C(C)C)[C@@H](C)O)[C@@H](C)CC)C(=O)[C@@H](CCCNC(=N)N)NC(=O)[C@@H](CCCNC(=N)N)NC(=O)[C@@H](CCCNC(=N)N)NC(=O)[C@@H](CCCNC(=N)N)NC(=O)[C@@H](CCCNC(=N)N)NC(=O)[C@@H](CCCNC(=N)N)NC(=O)[C@@H](CCCNC(=N)N)NC(=O)[C@@H](CCCNC(=N)N)NC(=O)[C@@H](CCCNC(=N)N)NC(C)=O)C(=O)N[C@@H](CCC(=O)O)C(=O)N[C@H](C(=O)N[C@@H](CC(=O)O)C(=O)N[C@H](C(=O)O)C(C)C)[C@@H](C)O` [Compound 44] reads 24 h; that for `CC[C@H](C)[C@H](NC(=O)CCOCCOCCN(CCOCCOCCC(=O)N[C@H](C(=O)N[C@@H](CCC(=O)O)C(=O)N[C@H](C(=O)N[C@@H](CC(=O)O)C(=O)N[C@H](C(=O)O)C(C)C)[C@@H](C)O)[C@@H](C)CC)C(=O)[C@H](CCCCN)NC(=O)[C@H](CO)NC(=O)[C@H](Cc1c[nH]cn1)NC(=O)[C@H](C)NC(=O)[C@H](Cc1c[nH]cn1)NC(=O)[C@H](C)NC(=O)[C@H](CCC(N)=O)NC(=O)[C@H](CCCCN)NC(=O)[C@H](CCCNC(=N)N)NC(=O)[C@@H](NC(=O)[C@H](CCCNC(=N)N)NC(=O)[C@H](CCCNC(=N)N)NC(=O)[C@H](CCCNC(=N)N)NC(=O)[C@H](CC(C)C)NC(=O)[C@@H](NC(=O)[C@@H](NC(=O)[C@H](CC(C)C)NC(=O)[C@H](CC(C)C)NC(C)=O)[C@@H](C)CC)[C@@H](C)CC)[C@@H](C)CC)C(=O)N[C@@H](CCC(=O)O)C(=O)N[C@H](C(=O)N[C@@H](CC(=O)O)C(=O)N[C@H](C(=O)O)C(C)C)[C@@H](C)O` [Compound 52], 0.817 ± 0.15 h; that for `CC(=O)N[C@@H](CCCNC(=N)N)C(=O)N[C@@H](CCCNC(=N)N)C(=O)N[C@@H](CCCNC(=N)N)C(=O)N[C@@H](CCCNC(=N)N)C(=O)N[C@@H](CCCNC(=N)N)C(=O)N[C@@H](CCCNC(=N)N)C(=O)N[C@@H](CCCNC(=N)N)C(=O)N[C@@H](CCCNC(=N)N)C(=O)N[C@@H](CCCNC(=N)N)C(=O)N(CCOCCOCCC(=O)N[C@@H](CCCCN)C(=O)N[C@@H](CCC(=O)O)C(=O)N[C@H](C(=O)N[C@H](C(=O)N[C@H](C(=O)O)C(C)C)C(C)C)[C@@H](C)O)CCOCCOCCC(=O)N[C@@H](CCCCN)C(=O)N[C@@H](CCC(=O)O)C(=O)N[C@H](C(=O)N[C@H](C(=O)N[C@H](C(=O)O)C(C)C)C(C)C)[C@@H](C)O` [Compound 27], 25.5 ± 9.63 h.

In turn, `CC[C@H](C)[C@H](NC(=O)CCOCCOCCN(CCOCCOCCC(=O)N[C@H](C(=O)N[C@@H](CCC(=O)O)C(=O)N[C@H](C(=O)N[C@@H](CC(=O)O)C(=O)N[C@H](C(=O)O)C(C)C)[C@@H](C)O)[C@@H](C)CC)C(=O)[C@H](C)NC(=O)[C@H](CC(C)C)NC(=O)[C@H](CCCCN)NC(=O)[C@H](CC(C)C)NC(=O)[C@H](C)NC(=O)[C@H](C)NC(=O)[C@H](CCCCN)NC(=O)[C@H](CC(C)C)NC(=O)[C@H](C)NC(=O)[C@H](CCCCN)NC(=O)[C@H](CC(C)C)NC(=O)[C@H](C)NC(=O)[C@H](CC(C)C)NC(=O)[C@H](CCCCN)NC(=O)[C@H](CC(C)C)NC(=O)[C@H](C)NC(=O)[C@H](CC(C)C)NC(=O)[C@H](CCCCN)NC(C)=O)C(=O)N[C@@H](CCC(=O)O)C(=O)N[C@H](C(=O)N[C@@H](CC(=O)O)C(=O)N[C@H](C(=O)O)C(C)C)[C@@H](C)O` [Compound 54] gave a half-life at 100 μM of 0.217 ± 0.0667 h. The same measure, in the same setting: then `CC[C@H](C)[C@H](NC(=O)CCOCCOCCN(CCOCCOCCC(=O)N[C@H](C(=O)N[C@@H](CCC(=O)O)C(=O)N[C@H](C(=O)N[C@@H](CC(=O)O)C(=O)N[C@H](C(=O)O)C(C)C)[C@@H](C)O)[C@@H](C)CC)C(=O)[C@@H](CCCNC(=N)N)NC(=O)[C@H](CCCNC(=N)N)NC(=O)[C@@H](CCCCN)NC(=O)[C@H](CCCCN)NC(=O)[C@@H](CCCNC(=N)N)NC(=O)CNC(=O)[C@@H](CCCNC(=N)N)NC(=O)[C@H](CCCNC(=N)N)NC(=O)[C@@H](CCCNC(=N)N)NC(C)=O)C(=O)N[C@@H](CCC(=O)O)C(=O)N[C@H](C(=O)N[C@@H](CC(=O)O)C(=O)N[C@H](C(=O)O)C(C)C)[C@@H](C)O` [Compound 40], with 24 h. On the same count and under the same terms, then `CC[C@@H](C)[C@@H](NC(=O)[C@@H](CC(C)C)NC(=O)[C@H]1CCCN1C(C)=O)C(=O)N[C@H](Cc1ccc(O)cc1)C(=O)N[C@H](CC(C)C)C(=O)N[C@H](CCCNC(=N)N)C(=O)N[C@H](CC(C)C)C(=O)N[C@H](CC(C)C)C(=O)N[C@H](CCCNC(=N)N)C(=O)NCC(=O)N[C@H](CCC(N)=O)C(=O)N[C@H](Cc1ccccc1)C(=O)N(CCOCCOCCC(=O)N[C@H](C(=O)N[C@@H](CCC(=O)O)C(=O)N[C@H](C(=O)N[C@@H](CC(=O)O)C(=O)N[C@H](C(=O)O)C(C)C)[C@@H](C)O)[C@@H](C)CC)CCOCCOCCC(=O)N[C@H](C(=O)N[C@@H](CCC(=O)O)C(=O)N[C@H](C(=O)N[C@@H](CC(=O)O)C(=O)N[C@H](C(=O)O)C(C)C)[C@@H](C)O)[C@@H](C)CC` [Compound 58], with 24 h.

The series is the same for the next values; noted with them: isolated enzyme plasmin; read-out: T1/2.
In the case of `CC[C@H](C)[C@H](NC(=O)CCOCCOCCN(CCOCCOCCC(=O)N[C@H](C(=O)N[C@@H](CCC(=O)O)C(=O)N[C@H](C(=O)N[C@@H](CC(=O)O)C(=O)N[C@H](C(=O)O)C(C)C)[C@@H](C)O)[C@@H](C)CC)C(=O)[C@H](CCCNC(=N)N)NC(=O)[C@H](CCCNC(=N)N)NC(=O)[C@H](CCCNC(=N)N)NC(=O)[C@H](CCC(N)=O)NC(=O)[C@H](CCCNC(=N)N)NC(=O)[C@H](CCCNC(=N)N)NC(=O)[C@H](CCCCN)NC(=O)[C@H](CCCCN)NC(=O)[C@H](CCCNC(=N)N)NC(=O)CNC(=O)[C@H](Cc1ccc(O)cc1)NC(C)=O)C(=O)N[C@@H](CCC(=O)O)C(=O)N[C@H](C(=O)N[C@@H](CC(=O)O)C(=O)N[C@H](C(=O)O)C(C)C)[C@@H](C)O` [Compound 9], the half-life came out at 3.82 ± 2.15 h.

The same series, now with this note: read-out: T1/2.
For the compound `CC[C@H](C)[C@H](NC(=O)CCOCCOCCN(CCOCCOCCC(=O)N[C@H](C(=O)N[C@@H](CCC(=O)O)C(=O)N[C@H](C(=O)N[C@@H](CC(=O)O)C(=O)N[C@H](C(=O)O)C(C)C)[C@@H](C)O)[C@@H](C)CC)C(=O)[C@H](CCCNC(=N)N)NC(=O)[C@H](CCCNC(=N)N)NC(=O)[C@H](CCCNC(=N)N)NC(=O)[C@H](CCC(N)=O)NC(=O)[C@H](CCCNC(=N)N)NC(=O)[C@H](CCCNC(=N)N)NC(=O)[C@H](CCCCN)NC(=O)[C@H](CCCCN)NC(=O)[C@H](CCCNC(=N)N)NC(=O)CNC(=O)[C@H](Cc1ccc(O)cc1)NC(C)=O)C(=O)N[C@@H](CCC(=O)O)C(=O)N[C@H](C(=O)N[C@@H](CC(=O)O)C(=O)N[C@H](C(=O)O)C(C)C)[C@@H](C)O` [Compound 9], the half-life came to 3.82 ± 2.15 h.
